These results are taken from patent US20120226036A1, “S[…] COMPOUND” (UBE INDUSTRIES, LTD., priority 2009, published 2012).

Usually Ki stands for a dissociation constant, usually derived from enzyme kinetics or from competition with a known ligand. A higher Ki goes with lower affinity.

In this assay the target is T1, human EP2 receptor (Homo sapiens, UniProt P43116).
T1 construct: host or cells: HEK293
The experiment in a line: Measurement of EP2 receptor binding action ([3H]prostaglandin E2 displacement, membrane fraction of HEK293 cells). Particulars: tested as active form (R1 = hydroxy group) of the example compound; [3H]prostaglandin E2 10 nM, 60 minutes at 30° C. The method, then:
Measurement of EP2 receptor binding action was carried out in compliance with the method of Abramovitz et al. (Biochimica et Biophysica Acta, 1483, 285 (2000)). A test compound (a compound wherein R^1 in the compound represented by the formula (I) of the present invention is a hydroxy group) dissolved in dimethylsulfoxide and [^3H]prostaglandin E2 (NET-428, available from PerkinElmer) (final concentration: 10 nM) were added to a buffer solution (10 mM MES-KOH (pH 6.0), 10 mM MgCl2, 1 mM EDTA) in which was suspended 10 μg of a membrane fraction of HEK293 cells expressing human EP2 receptor (ES-562-M, available from Euroscreen) followed by incubating for 60 minutes at 30° C. The membrane fraction was recovered on glass fiber filter paper (GF/B, available from Whatmann) using a cell harvester (M30R, Brandel), and after washing with a buffer solution (10 mM MES-KOH (pH 6.0), 10 mM MgCl2), radioactivity was measured with a liquid scintillation analyzer (2000CA, Packard).
Ki=IC50/(1+([^3H]prostaglandin E2 concentration/Kd))
The dissociation constant (Kd value) was calculated by Scatchard analysis.

T1 sequence (P43116 whole entry): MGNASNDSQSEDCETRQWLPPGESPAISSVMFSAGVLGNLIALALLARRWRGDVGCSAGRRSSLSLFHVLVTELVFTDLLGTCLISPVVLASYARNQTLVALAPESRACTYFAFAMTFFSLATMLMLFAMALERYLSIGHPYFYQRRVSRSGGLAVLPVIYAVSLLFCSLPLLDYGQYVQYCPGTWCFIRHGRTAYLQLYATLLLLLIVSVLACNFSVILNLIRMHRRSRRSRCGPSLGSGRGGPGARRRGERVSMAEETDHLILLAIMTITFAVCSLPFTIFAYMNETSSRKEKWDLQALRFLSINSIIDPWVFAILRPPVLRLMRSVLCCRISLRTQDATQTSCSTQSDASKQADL

In turn, “(2,2,2-Trifluoroethyl)(6-{[4-(pyrazol-1-yl)benzyl](pyridin-3-ylsulfonyl)aminomethyl}-pyridin-2-ylamino)acetate [Example 11]” yielded a Ki of 13 nM.
Under “(5-Phenylpentyl)(6-{(pyridin-2-ylsulfonyl)[4-(thiazol-2-yl)benzyl]aminomethyl}-pyridin-2-ylamino)acetate [Example 1]” stands 1.9 nM.
